Experimental data as given in PubChem BioAssay AID248 (DTP/NCI, 2004).
Inconclusive results and toxic doses are left out. Cut-off read from the data, not from the text of the source: active = T/C of 150% or more; inactive = T/C below 125%.

Tested on: L1210 leukemia ip in BDF1 mice, survival T/C
Experiment: NCI In Vivo Anticancer Drug Screen. Data for tumor model L1210 Leukemia (intraperitoneal) in B6D2F1 (BDF1) mice
Settings: endpoint: mean survival time, higher = longer survival
Outline: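 Transplantable tumor model; survival measured in treated vs vehicle control mice. Value = treated/control.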

[1] = dose: 100.0 mg/kg/injection, schedule: Q04DX003 (ip), vehicle: saline
[2] = dose: 200.0 mg/kg/injection, schedule: Q04DX003 (ip), vehicle: saline
[3] = dose: 400.0 mg/kg/injection, schedule: Q04DX003 (ip), vehicle: saline
[4] = dose: 75.0 mg/kg/injection, schedule: Q01DX001 (ip), vehicle: saline
[5] = dose: 100.0 mg/kg/injection, schedule: Q04DX003 (ip), vehicle: Klucel (hydroxypropylcellulose) (HPC)
[6] = dose: 200.0 mg/kg/injection, schedule: Q04DX003 (ip), vehicle: Klucel (hydroxypropylcellulose) (HPC)
[7] = dose: 400.0 mg/kg/injection, schedule: Q04DX003 (ip), vehicle: Klucel (hydroxypropylcellulose) (HPC)
[8] = dose: 100.0 mg/kg/injection, schedule: Q04DX002 (ip), vehicle: saline with Tween-80
[9] = dose: 200.0 mg/kg/injection, schedule: Q04DX002 (ip), vehicle: saline with Tween-80
[10] = dose: 400.0 mg/kg/injection, schedule: Q04DX002 (ip), vehicle: saline with Tween-80
[11] = dose: 100.0 mg/kg/injection, schedule: Q04DX002 (ip), vehicle: Klucel (hydroxypropylcellulose) (HPC)
[12] = dose: 200.0 mg/kg/injection, schedule: Q04DX002 (ip), vehicle: Klucel (hydroxypropylcellulose) (HPC)
[13] = dose: 400.0 mg/kg/injection, schedule: Q04DX002 (ip), vehicle: Klucel (hydroxypropylcellulose) (HPC)

Measured: T/C

COc1ccc(C(=O)/C(C)=N/O)cc1
inactive: dose: 100.0 mg/kg/injection, schedule: Q01DX001 (ip), vehicle: saline 103 % of control | dose: 200.0 mg/kg/injection, schedule: Q01DX001 (ip), vehicle: saline 103 % of control | dose: 400.0 mg/kg/injection, schedule: Q01DX001 (ip), vehicle: saline 101 % of control

CCOC(=O)c1cn[nH]c1/N=N/N(C)C
inactive: dose: 42.0 mg/kg/injection, schedule: Q01DX009 (ip), vehicle: carboxymethylcellulose (CMC) 113 % of control | dose: 178.0 mg/kg/injection, schedule: Q01DX001 (ip), vehicle: carboxymethylcellulose (CMC) 110 % of control | dose: 267.0 mg/kg/injection, schedule: Q01DX001 (ip), vehicle: carboxymethylcellulose (CMC) 112 % of control

COc1ccc(CNCCNCCNCc2ccc(OC)cc2)cc1
inactive: dose: 100.0 mg/kg/injection, schedule: Q01DX009 (ip), vehicle: saline with Tween-80 107 % of control | [1] 104 % of control | dose: 200.0 mg/kg/injection, schedule: Q01DX009 (ip), vehicle: saline with Tween-80 109 % of control | [2] 102 % of control | dose: 400.0 mg/kg/injection, schedule: Q01DX009 (ip), vehicle: saline with Tween-80 102 % of control | [3] 104 % of control

FC(F)(F)c1ccc2c(c1)N(CCCN1CCN(CCOCCCl)CC1)c1ccccc1S2
inactive: dose: 0.19 mg/kg/injection, schedule: Q01DX009 (ip), vehicle: saline 104 % of control | dose: 0.39 mg/kg/injection, schedule: Q01DX009 (ip), vehicle: saline 94 % of control | dose: 0.78 mg/kg/injection, schedule: Q01DX009 (ip), vehicle: saline 98 % of control | dose: 1.17 mg/kg/injection, schedule: Q04DX003 (ip), vehicle: saline 101 % of control | dose: 1.56 mg/kg/injection, schedule: Q01DX009 (ip), vehicle: saline 107 % of control | dose: 2.34 mg/kg/injection, schedule: Q04DX003 (ip), vehicle: saline 95 % of control | dose: 3.12 mg/kg/injection, schedule: Q01DX009 (ip), vehicle: saline 89 % of control | dose: 4.68 mg/kg/injection, schedule: Q04DX003 (ip), vehicle: saline 98 % of control | dose: 6.25 mg/kg/injection, schedule: Q04DX003 (ip), vehicle: saline 108 % of control | dose: 9.9 mg/kg/injection, schedule: Q01DX001 (ip), vehicle: saline 97 % of control | dose: 12.5 mg/kg/injection, schedule: Q04DX003 (ip), vehicle: saline 119 % of control | dose: 15.0 mg/kg/injection, schedule: Q01DX001 (ip), vehicle: saline 102 % of control | dose: 22.5 mg/kg/injection, schedule: Q01DX001 (ip), vehicle: saline 103 % of control | dose: 25.0 mg/kg/injection, schedule: Q04DX003 (ip), vehicle: saline 122 % of control | dose: 50.0 mg/kg/injection, schedule: Q04DX003 (ip), vehicle: saline 90 % of control

CNCCO
inactive: dose: 100.0 mg/kg/injection, schedule: Q01DX009 (ip), vehicle: saline 97 % of control | [1] 96 % of control | dose: 200.0 mg/kg/injection, schedule: Q01DX009 (ip), vehicle: saline 92 % of control | [2] 98 % of control | dose: 400.0 mg/kg/injection, schedule: Q01DX009 (ip), vehicle: saline 97 % of control | [3] 102 % of control

Cc1ccc(Cl)cc1N=C=S
inactive: [4] 100 % of control | dose: 150.0 mg/kg/injection, schedule: Q01DX001 (ip), vehicle: saline 101 % of control | dose: 300.0 mg/kg/injection, schedule: Q01DX001 (ip), vehicle: saline 106 % of control

C1=CC(OC2C=CCC2)CC1 (configuration not stated)
inactive: dose: 25.0 mg/kg/injection, schedule: Q04DX002 (ip), vehicle: saline 89 % of control | dose: 50.0 mg/kg/injection, schedule: Q04DX002 (ip), vehicle: saline 118 % of control | dose: 100.0 mg/kg/injection, schedule: Q04DX002 (ip), vehicle: saline 99 % of control

Nc1c(Br)cc2c([nH]c(=O)c3cc(Br)ccc32)c1Br
inactive: dose: 100.0 mg/kg/injection, schedule: Q01DX001 (ip), vehicle: carboxymethylcellulose (CMC) 101 % of control | dose: 200.0 mg/kg/injection, schedule: Q01DX001 (ip), vehicle: carboxymethylcellulose (CMC) 104 % of control | dose: 400.0 mg/kg/injection, schedule: Q01DX001 (ip), vehicle: carboxymethylcellulose (CMC) 106 % of control

O=[N+]([O-])c1ccc(Cl)c2ncccc12
inactive: [5] 102 % of control | [6] 98 % of control | [7] 102 % of control

CC(=O)Nc1ccc(OCCOc2cccc(C)c2)cc1
inactive: dose: 100.0 mg/kg/injection, schedule: Q01DX001 (ip), vehicle: Klucel (hydroxypropylcellulose) (HPC) 103 % of control | dose: 200.0 mg/kg/injection, schedule: Q01DX001 (ip), vehicle: Klucel (hydroxypropylcellulose) (HPC) 100 % of control | dose: 400.0 mg/kg/injection, schedule: Q01DX001 (ip), vehicle: Klucel (hydroxypropylcellulose) (HPC) 105 % of control

BrC[Si](c1ccccc1)(c1ccccc1)c1ccccc1
inactive: [8] 96 % of control | [9] 96 % of control | [10] 92 % of control

CCC/C=C(\C)C(C)(C#N)C(=O)OCC (configuration not stated)
inactive: dose: 75.0 mg/kg/injection, schedule: Q01DX001 (ip), vehicle: other 112 % of control | dose: 150.0 mg/kg/injection, schedule: Q01DX001 (ip), vehicle: other 98 % of control | dose: 300.0 mg/kg/injection, schedule: Q01DX001 (ip), vehicle: other 110 % of control

CSc1ccccc1NC(=O)c1cccs1
inactive: [11] 89 % of control | [12] 96 % of control | [13] 93 % of control

Cc1ccc(NC(=S)Nc2ccccc2)cc1Cl
inactive: [11] 106 % of control | [12] 100 % of control | [13] 100 % of control

Clc1nc(Cl)nc(SCCSc2nc(Cl)nc(Cl)n2)n1
inactive: [1] 97 % of control | [2] 110 % of control | [3] 98 % of control

CC(N)C(O)C(Cl)(Cl)Cl (configuration not stated)
inactive: dose: 100.0 mg/kg/injection, schedule: Q04DX003 (ip), vehicle: saline with Tween-80 92 % of control | dose: 200.0 mg/kg/injection, schedule: Q04DX003 (ip), vehicle: saline with Tween-80 92 % of control | dose: 400.0 mg/kg/injection, schedule: Q04DX003 (ip), vehicle: saline with Tween-80 90 % of control

O=[N+]([O-])c1ccc(N=Cc2ccc(Cl)cc2Cl)c(O)c1
inactive: [8] 86 % of control | [9] 120 % of control | [10] 99 % of control

Cc1nc(Cl)c2c(n1)Oc1nc(C)nc(Cl)c1C2c1ccc(Cl)cc1
inactive: dose: 50.0 mg/kg/injection, schedule: Q04DX003 (ip), vehicle: Klucel (hydroxypropylcellulose) (HPC) 97 % of control | dose: 100.0 mg/kg/injection, schedule: Q01DX009 (ip), vehicle: Klucel (hydroxypropylcellulose) (HPC) 96 % of control | [5] 97 % of control | dose: 200.0 mg/kg/injection, schedule: Q01DX009 (ip), vehicle: Klucel (hydroxypropylcellulose) (HPC) 97 % of control | [6] 101 % of control | dose: 400.0 mg/kg/injection, schedule: Q01DX009 (ip), vehicle: Klucel (hydroxypropylcellulose) (HPC) 107 % of control | [7] 95 % of control

CCCCCCC(CC)NCCO (configuration not stated)
inactive: [4] 96 % of control
